ChEMBL document CHEMBL2157940, “Low molecular weight phosphotyrosine protein phosphatases as emerging targets for the design of novel therapeutic agents” (J Med Chem, 2012)

How the values were obtained:
[1] = target: T1, Tyrosine-protein phosphatase non-receptor type 1 (Homo sapiens, UniProt P18031); experiment: Inhibition of human PTP1B
T1 sequence (P18031 whole entry): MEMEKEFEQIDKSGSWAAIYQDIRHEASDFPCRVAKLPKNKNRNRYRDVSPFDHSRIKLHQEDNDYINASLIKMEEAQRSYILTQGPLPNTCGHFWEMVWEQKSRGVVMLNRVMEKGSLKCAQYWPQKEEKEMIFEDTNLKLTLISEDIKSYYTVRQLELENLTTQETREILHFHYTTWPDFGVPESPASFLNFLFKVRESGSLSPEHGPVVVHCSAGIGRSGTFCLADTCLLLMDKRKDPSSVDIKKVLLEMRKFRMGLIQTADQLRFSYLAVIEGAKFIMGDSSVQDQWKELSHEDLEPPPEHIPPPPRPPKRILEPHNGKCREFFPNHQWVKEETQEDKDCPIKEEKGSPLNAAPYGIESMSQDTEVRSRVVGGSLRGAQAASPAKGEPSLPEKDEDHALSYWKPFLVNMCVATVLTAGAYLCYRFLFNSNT

[2] = target: T2, Low molecular weight phosphotyrosine protein phosphatase (Homo sapiens, UniProt P24666); experiment: Inhibition of human LMW-PTPase isoform 1
T2 sequence (P24666 whole entry): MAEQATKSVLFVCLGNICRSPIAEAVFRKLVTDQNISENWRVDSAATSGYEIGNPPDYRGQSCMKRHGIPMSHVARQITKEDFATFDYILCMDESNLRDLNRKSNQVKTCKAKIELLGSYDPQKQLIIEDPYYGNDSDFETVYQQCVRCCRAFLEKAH

[3] = Inhibition of Mycobacterium tuberculosis LMW-PTP
[4] = target: T3, Low molecular weight phosphotyrosine protein phosphatase (Bos taurus) (UniProt P11064); experiment: Activation of bovine kidney LMW-PTPase at 400 uM using pNPP substrate
T3 sequence (whole entry): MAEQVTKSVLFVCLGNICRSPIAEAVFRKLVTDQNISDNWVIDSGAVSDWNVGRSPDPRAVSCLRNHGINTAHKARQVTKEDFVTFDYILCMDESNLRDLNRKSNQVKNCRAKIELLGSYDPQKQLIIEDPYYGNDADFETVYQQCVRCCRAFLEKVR

[5] = target: T2, Low molecular weight phosphotyrosine protein phosphatase; experiment: Inhibition of human LMW-PTPase isoform 2
[6] = target: T3, Low molecular weight phosphotyrosine protein phosphatase (Bos taurus); experiment: Inhibition of bovine kidney LMW-PTPase at 400 uM using pNPP substrate

Structure (SMILES) | IC50 [2] [µM] | IC50 [5] [µM] | inhibition [6] [%] | further results
O=C(O)c1ccc(COc2ccc(/C=C3\S/C(=N\c4ccccc4)N(Cc4ccc(C(=O)O)cc4)C3=O)cc2)cc1 | 5.8 |  |  | IC50 [1]: 0.55 µM
C/C(=C1\C=CC=N1)c1ccc(-c2ccc[nH]2)o1 |  |  |  | IC50 [3]: 9.4 µM
O=c1c(O)c(-c2ccc(O)c(O)c2)oc2cc(O)cc(O)c12 |  |  |  | fold change (FC) [4]: 2.6
Nc1ccccc1/C=C/P(=O)(O)O | 5300 | 13000 |  | 
Oc1cc(O)c2c(c1)OC(c1ccc(O)c(O)c1)C(O)C2 (configuration not stated) |  |  | 14 | 
Nc1ccccc1CCP(=O)(O)O | 250 | 1400 |  | 
O=P(O)(O)CCc1cccc2ccccc12 | 14000 | 10000 |  | 
CCCCCCCCCCCCC[C@H]1OC(=O)[C@H](COCc2ccccc2)NC(=O)[C@H]([C@@H](C)O)NC(=O)[C@H](C(C)C)NC(=O)[C@H]1C |  |  |  | IC50 [3]: 8.8 µM
C[C@@H]1O[C@@H](OC[C@H]2O[C@@H](Oc3c(-c4ccc(O)c(O)c4)oc4cc(O)cc(O)c4c3=O)[C@H](O)[C@@H](O)[C@@H]2O)[C@H](O)[C@H](O)[C@H]1O |  |  | 14 | 
O=C(CCc1ccc(O)cc1)c1c(O)cc(O)cc1O |  |  | 14 | 
O=P(O)(O)CCc1cncc2cc[nH]c12 | 1790 | 2760 |  | 
O=c1c(O)c(-c2cc(O)c(O)c(O)c2)oc2cc(O)cc(O)c12 |  |  | 14 | 
O=c1c(O)c(-c2ccc(O)cc2O)oc2cc(O)cc(O)c12 |  |  | 35 | 
O=C(O)c1ccc(COc2cccc(/C=C3\S/C(=N\c4ccccc4)N(Cc4ccc(C(=O)O)cc4)C3=O)c2)cc1 | 0.5 | 0.22 |  | 
Nc1ccncc1CCP(=O)(O)O | 300 | 2210 |  | 
